{"source": "patent US20190062671A1", "about": "“PERFUME COMPOSITIONS” (Givaudan SA, priority 2016, published 2019)", "key": {"KeratinoSens cells": {"tested_on": "KeratinoSens cells", "test": "Cytotoxicity / cellular viability in the KeratinoSens assay", "format": "cell-based", "details": "single chemicals, 48 h", "protocol": "(§1) Compounds were tested using the commercial KeratinoSens® assay for skin sensitization. The KeratinoSens® test compares the potential skin sensitization risk of chemicals. […] KeratinoSens® cells were grown for 24 h in 96-well plates. The medium was then replaced with medium containing the test chemical and the solvent dimethylsulfoxide (DMSO) at a final level of 1% (v/v). Each compound was tested at 12 binary dilutions in the range from 0.98 to 2000 μM. Cells were incubated for 48 h with the test agents, and then luciferase activity and cytotoxicity were determined. This full procedure was repeated three times for each chemical. For each chemical in each repetition and at each concentration, the gene induction compared to DMSO controls and the wells with statistically significant induction over the threshold of 1.5 (i.e. 50% enhanced gene activity) were determined. Furthermore, the maximal fold-induction (Imax) and the EC1.5 value (concentration in μM for induction above the threshold) were calculated.\n(§2) All compositions were tested in the concentration range from 0.2-400 ppm (parts per million in weights per volume)."}, "[1]": {"tested_on": "Nrf2-dependent luciferase (ARE-element of the gene AKR1C2) in KeratinoSens cell line", "test": "KeratinoSens assay, luciferase gene induction (OECD TG 442d)", "details": "single chemicals; for Rating in the KeratinoSens assay (skin sensitization): threshold 1.5-fold induction", "protocol": "The level of skin sensitization can reliably and quantitatively be measured experimentally by the KeratinoSens® method, which measures the induction of Nrf2-dependent luciferase in a skin cell line.\nas §1, §2"}, "[2]": {"molecular_target": "test peptide Cor1C-420 (Ac-NKKCDLF) (Homo sapiens, UniProt Q9ULV4, I423F)", "test": "Modified direct peptide reactivity assay with LC-MS detection of peptide adducts", "details": "for Peptide reactivity: quantification, % of parent peptide modified: pH 7.5", "protocol": "Alternatively, the sensitization potential can be quantified by measuring the reactivity of test chemicals with peptides.\nIt is based on the fact that allergenic chemicals must react with a peptide/protein in order to be immunogenic.\nThe samples were incubated for 24 h at 37° C. and analysed by LC-MS analysis on a VELOS PRO Mass spectrometer (Thermo […], San Jose, Calif., U.S.A.) operated in the ESI(+) mode.\nMass spectra were recorded from 200-2000 amu. A ZORBAX Eclipse XDB-C18 column, 2.1 mm ID, 150 mm, 5-Micron (Agilent Technologies) was used. The mobile phase consisted of H2O (A) and methanol (B) each containing 0.1% formic acid (v/v). The solvent flow was 250 μl/min and the following gradient (ratio A:B) was used: 0 min, 95:5; 2 min, 40:60; 10 min, 2:98; 12 min, 2:98. The integration was performed with Xcalibur Quan Browser™.\nIn order to detect formation of modified peptides, the specific ion trace for a new adduct with the mass of the test chemical added to the test peptide is extracted, and the peak of the peptide-adduct is integrated. Peptide adduct formation is a particular sensitive endpoint to determine reactive, and thus allergenic nature of compounds."}, "[3]": {"details": "1 mM test chemical, 0.1 mM peptide, 24 h at 37° C."}}, "note": "“Also recorded” adds a separate entry of the source."}
{"molecule": "CC(C)=CCCC(C)=CC=O", "note": "[Citral, 3,7-dimethyl-2,6-octadienal, reference compound]", "values": [{"measurement": "Concentration for 50% Cytotoxicity", "setting": "KeratinoSens cells", "value": 95.5, "unit": "µM"}, {"measurement": "Rating in the KeratinoSens assay (skin sensitization)", "setting": "[1]", "value": "highly active"}, {"measurement": "Peptide reactivity: quantification, % of parent peptide modified", "setting": "[2]; 24 h, 1 mM", "value": "8.1% of parent"}]}
{"molecule": "CC(C)=CCC(C)/C=C(\\C)C=O", "note": "(centres unmarked) [2,4,7-trimethyl-2,6,-octadienal]", "values": [{"measurement": "Concentration for 50% Cytotoxicity", "setting": "KeratinoSens cells", "value": 317.8, "unit": "µM"}, {"measurement": "Imax (fold maximal gene induction)", "setting": "[1]; 0.98 to 2000 μM, 48 h", "value": 1.40, "unit": "fold"}, {"measurement": "Concentration for 1.5-fold gene induction (EC 1.5 in μM)", "setting": "[1]; 48 h, n.i. = no induction above threshold of 1.5 (negative rating)", "value": "n.i."}, {"measurement": "Rating in the KeratinoSens assay (skin sensitization)", "setting": "[1]", "value": "non-sensitizing; also recorded: does not surpass the threshold for a positive rating up to the top dose"}, {"measurement": "Peptide reactivity: adduct observation", "setting": "[2]; [3]", "value": "only traces were formed"}, {"measurement": "Peptide reactivity: quantification, % of parent peptide modified", "setting": "[2]; [3]", "value": "observed, 0.3% of parent"}, {"measurement": "Peptide reactivity: adduct observation", "setting": "[2]; 1 mM test chemical, 0.1 mM peptide, 24 h at 37° C., listed as II", "value": "Extremely low activity,"}, {"measurement": "Peptide reactivity / adduct amount, fold lower as compared to Citral", "setting": "[2]; relative to Citral", "value": 27, "unit": "fold"}]}
